Reference: article PMC9977398, “Next-generation membrane-active glycopeptide antibiotics that also inhibit bacterial cell division” (Chemical Science, 2023)

Columns and labels:
ΔamiAC MG1655 E. coli = test: Microscopy of ΔamiAC MG1655 E. coli; type: cell-based; settings: sub-inhibitory concentrations: vancomycin 3 μM, VanQAmC10 2 μM (Fig. 5D)
Description: The bacterial amidases help cleave the septum in the final stage of cell division to produce daughter cells.[39] In the absence of amidases, chains of unseparated cells are formed (Fig. 5D). These retain distinct cytoplasmic compartments but share an outer membrane.[39] These cells are known to be hypersensitive to antibiotics and detergents. However, ΔamiAC mutations are resistant to killing by cephalexin.[38] The MIC of VanQAmC10 against the ΔamiAC mutant was reduced to 4 μM, while that of vancomycin was >10 μM. […] This is indicative of impaired cell division. Cell debris due to lysis after compound treatment are also visible. […]
(§1) from 10 μg/mL. The bacteria with compounds and untreated control were incubated for 18 h at 37 ̊C under shaking and OD600 was measured.
(§2) Microscopy of ΔamiAC MG1655 E. coli
ΔamiAC MG1655 was cultured overnight in LB media at 37 ̊C. […]
(§3) MRSA ATCC 33591 was grown to mid-log phase at 37 °C. […] The viable bacteria were then counted after 48 h incubation at 37 °C. […]
(§4) Antagonization of antibacterial activity of AAV-qC10 was determined by addition of 500 μM N,N՛-diacetyl–L-Lys–D-Ala–D-Ala or 100 μg/mL of lipoteichoic acid to serial dilutions of the test compound. The MIC was then determined against MRSA by measuring the OD600 18-24 […]
(§5) Vancomycin was chosen as control antibiotic for MRSA. The initial MIC values of VanQAmC10, vancomycin were determined against the respective bacteria. […]

MRSA [1] = test: Resistance study, serial passaging at sub-MIC; type: cell-based, S. aureus; settings: after 20 passages at sub-MIC
Description: Having observed the multiple mechanisms of VanQAmC10, the potential as a preclinical candidate was examined. […] The frequency of resistance for both vancomycin and VanQAmC10 against MRSA was <10^−8 indicating the absence of spontaneous mutants. […]
as §1, §2
ΔamiAC MG1655 was cultured overnight in LB media at 37 ̊C. Cells were then inoculated in LB media at 1:100 dilution ratio and made to grow till O.D600 0.1. The cells were then treated with 4 μg/mL concentration of vancomycin and VanQAmC10 or left untreated for 2 h. […]
as §3, §4, §5
The doses for administration, were given modified OECD guidelines. LD50 was determined using Spearman-Karber method. […]

MRSA [2] = test: Frequency of resistance; type: cell-based, S. aureus
Source text: Having observed the multiple mechanisms of VanQAmC10, the potential as a preclinical candidate was examined. […] The frequency of resistance for both vancomycin and VanQAmC10 against MRSA was <10^−8 indicating the absence of spontaneous mutants.

SMILES	morphology of ΔamiAC mutant (ΔamiAC MG1655 E. coli)	increase in MIC (resistance development) (MRSA [1])	frequency of resistance (MRSA [2])
CCCCCCCCCCNC(=O)C[N+](C)(C)CCCNC(=O)C1NC(=O)C2NC(=O)C(NC(=O)C3NC(=O)C(CC(N)=O)NC(=O)C(NC(=O)C(CC(C)C)NC)C(O)c4ccc(c(Cl)c4)Oc4cc3cc(c4OC3OC(CO)C(O)C(O)C3OC3CC(C)(N)C(O)C(C)O3)Oc3ccc(cc3Cl)C2O)c2ccc(O)c(c2)-c2c(O)cc(O)cc21 (stereo not drawn) [VanQAmC10 (8)]	larger cell phenotypes of variable sizes	lack of resistance development	< 10^−8
CN[C@H](CC(C)C)C(=O)N[C@H]1C(=O)N[C@@H](CC(N)=O)C(=O)N[C@H]2C(=O)N[C@H]3C(=O)N[C@H](C(=O)N[C@H](C(=O)O)c4cc(O)cc(O)c4-c4cc3ccc4O)[C@H](O)c3ccc(c(Cl)c3)Oc3cc2cc(c3O[C@@H]2O[C@H](CO)[C@@H](O)[C@H](O)[C@H]2O[C@H]2C[C@](C)(N)[C@H](O)[C@H](C)O2)Oc2ccc(cc2Cl)[C@H]1O [Vancomycin, reference compound]	few cells appear larger and bulky while most appear similar to the untreated bacteria	2 fold	< 10^−8
